Biological target: GSK 3α (Homo sapiens (Human), UniProt P49840)
Experiment: GSK 3α enzyme inhibition (Method 2), Z-LYTE FRET
Format: biochemical
Conditions: read-out: IC50 Values for Enzyme Inhibition GSK3α
Experimental: The enzyme inhibitory activities of compounds disclosed herein are determined by FRET using synthetic peptides labelled with both donor and acceptor fluorophores (Z-LYTE, Invitrogen Ltd., Paisley, UK).
The following two assay variants can be used for determination of GSK 3α inhibition.
The inhibitory activities of compounds of the invention against the GSK 3α enzyme isoform (Invitrogen), are evaluated by determining the level of activation/phosphorylation of the target peptide. The GSK3-α protein (500 ng/mL, 2.5 μL) is mixed with the test compound (2.5 μL at either 4 μg/mL, 0.4 μg/mL, 0.04 μg/mL, or 0.004 μg/mL) for 2 hr at RT. The FRET peptide (8 μM, 2.5 μL), which is a phosphorylation target for GSK3α, and ATP (40 μM, 2.5 μL) are then added to the enzyme/compound mixture and the resulting mixture incubated for 1 hr. Development reagent (protease, 5 μL) is added for 1 hr prior to detection in a fluorescence microplate reader (Varioskan® Flash, ThermoFisher Scientific).
In all cases, the site-specific protease cleaves non-phosphorylated peptide only and eliminates the FRET signal. Phosphorylation levels of each reaction are calculated using the ratio of coumarin emission (donor) over fluorescein emission (acceptor), for which high ratios indicate high phosphorylation and low ratios indicate low phosphorylation levels.
This method follows the same steps as Method 1 above, but utilises a shorter period of mixing of the test compound (105 minutes instead of 2 hours) with the GSK3-α protein. In addition, the concentrations of test compound employed are either 10 μg/mL, 1 μg/mL, 0.1 μg/mL, or 0.01 μg/mL

Chain of GSK 3α (P49840 whole entry): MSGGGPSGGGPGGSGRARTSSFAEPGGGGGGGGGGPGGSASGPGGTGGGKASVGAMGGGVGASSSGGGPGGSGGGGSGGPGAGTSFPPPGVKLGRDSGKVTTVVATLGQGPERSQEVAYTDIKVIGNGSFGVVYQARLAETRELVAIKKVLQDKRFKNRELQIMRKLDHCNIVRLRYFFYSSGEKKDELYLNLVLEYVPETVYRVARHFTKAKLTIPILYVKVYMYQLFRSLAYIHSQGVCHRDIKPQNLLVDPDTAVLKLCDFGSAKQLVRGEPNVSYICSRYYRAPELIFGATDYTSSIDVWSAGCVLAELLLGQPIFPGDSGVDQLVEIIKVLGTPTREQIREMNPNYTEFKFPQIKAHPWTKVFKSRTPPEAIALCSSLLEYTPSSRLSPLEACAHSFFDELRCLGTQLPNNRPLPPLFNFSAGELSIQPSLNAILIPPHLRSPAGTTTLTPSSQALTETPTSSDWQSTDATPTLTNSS

For COc1cc(Nc2cc(Oc3ccc(NC(=O)Nc4cc(C(C)(C)C)cc(NS(C)(=O)=O)c4OC)c4ccccc34)ccn2)ccc1C(=O)NCCN1CCSCC1 [17(l), 4-[[4-[[4-[[5-tert-butyl-3-(methanesulfonamido)-2-methoxy-phenyl]carbamoylamino]-1-naphthyl]oxy]-2-pyridyl]amino]-2-methoxy-N-(2-thiomorpholinoethyl)benzamide], which IC50 is on record?
Its IC50 is > 12.1 µM.

With COc1cc(Nc2cc(Oc3ccc(NC(=O)Nc4cc(C(C)(C)C)cc(NS(C)(=O)=O)c4OC)c4ccccc34)ccn2)ccc1C(=O)NCCN1CCC(O)CC1 [17(m), 4-[[4-[[4-[[5-tert-butyl-3-(methanesulfonamido)-2-methoxy-phenyl]carbamoylamino]-1-naphthyl]oxy]-2-pyridyl]amino]-N-[2-(4-hydroxy-1-piperidyl)ethyl]-2-methoxy-benzamide] as the compound, how does the IC50 read?
The IC50 was 2.77 µM.

COc1cc(Nc2cc(Oc3ccc(NC(=O)Nc4cc(C(C)(C)C)cc(NS(C)(=O)=O)c4OC)c4ccccc34)ccn2)ccc1C(=O)NCC(C)(C)N1CCOCC1 [17(n), 4-[[4-[[4-[[5-tert-butyl-3-(methanesulfonamido)-2-methoxy-phenyl]carbamoylamino]-1-naphthyl]oxy]-2-pyridyl]amino]-2-methoxy-N-(2-methyl-2-morpholino-propyl)benzamide] was tested. Which IC50 did it give?
The IC50 was > 11.9 µM.

With COc1cc(Nc2cc(Oc3ccc(NC(=O)Nc4cc(C(C)(C)C)cc(NS(C)(=O)=O)c4OC)c4ccccc34)ccn2)ccc1S(=O)(=O)N(C)CCN1CCOCC1 [17(o), 1-[5-tert-butyl-3-(methanesulfonamido)-2-methoxy-phenyl]-3-[4-[[2-[3-methoxy-4-[methyl(2-morpholinoethyl)sulfamoyl]anilino]-4-pyridyl]oxy]-1-naphthyl]urea] as the compound, how does the IC50 read?
The IC50 was 3.32 µM.

COc1cc(Nc2cc(Oc3ccc(NC(=O)Nc4cc(C(C)(C)C)cc(NS(C)(=O)=O)c4OC)c4ccccc34)ccn2)ccc1C(=O)NCCN1CCCC1 [17(q), 4-[[4-[[4-[[5-tert-butyl-3-(methanesulfonamido)-2-methoxy-phenyl]carbamoylamino]-1-naphthyl]oxy]-2-pyridyl]amino]-2-methoxy-N-(2-pyrrolidin-1-ylethyl)benzamide] was tested. Which IC50 did it give?
Its IC50 is 1.98 µM.

For COc1cc(Nc2cc(Oc3ccc(NC(=O)Nc4cc(C(C)(C)C)cc(NS(C)(=O)=O)c4OC)c4ccccc34)ccn2)ccc1C(=O)NCCN1CCS(=O)(=O)CC1 [17(r), 4-[[4-[[4-[[5-tert-butyl-3-(methanesulfonamido)-2-methoxy-phenyl]carbamoylamino]-1-naphthyl]oxy]-2-pyridyl]amino]-N-[2-(1,1-dioxo-1,4-thiazinan-4-yl)ethyl]-2-methoxy-benzamide], which IC50 is on record?
The IC50 was 4.04 µM.

For COc1cc(Nc2cc(Oc3ccc(NC(=O)Nc4cc(C(C)(C)C)cc(NS(C)(=O)=O)c4OC)c4ccccc34)ccn2)ccc1C(=O)NCCCCC(=O)O [17(s), 5-[[4-[[4-[[4-[[5-tert-butyl-3-(methanesulfonamido)-2-methoxy-phenyl]carbamoylamino]-1-naphthyl]oxy]-2-pyridyl]amino]-2-methoxy-benzoyl]amino]pentanoic acid], which IC50 is on record?
The IC50 was 0.394 µM.

Which IC50 does the source give for COc1c(NC(=O)Nc2ccc(Oc3ccnc(Nc4ccc(C(=O)O)cc4)c3)c3ccccc23)cc(C(C)(C)C)cc1NS(C)(=O)=O [17(t), 4-[[4-[[4-[[5-tert-butyl-3-(methanesulfonamido)-2-methoxy-phenyl]carbamoylamino]-1-naphthyl]oxy]-2-pyridyl]amino]benzoic acid] here?
Its IC50 is 0.14 µM.

With COc1cc(Nc2cc(Oc3ccc(NC(=O)Nc4cc(C(C)(C)C)cc(NS(C)(=O)=O)c4OC)c4ccccc34)ccn2)ccc1C(=O)NCCN1CCNCC1 [17(w), 4-[[4-[[4-[[5-tert-butyl-3-(methanesulfonamido)-2-methoxy-phenyl]carbamoylamino]-1-naphthyl]oxy]-2-pyridyl]amino]-2-methoxy-N-(2-piperazin-1-ylethyl)benzamide] as the compound, how does the IC50 read?
Its IC50 is 0.674 µM.

Which IC50 does the source give for COc1cc(Nc2cc(Oc3ccc(NC(=O)Nc4cc(C(C)(C)C)cc(C(N)=O)c4OC)c4ccccc34)ccn2)ccc1C(=O)NCCN1CCOCC1 [Example 4, 4-((4-((4-(3-(5-(tert-Butyl)-3-carbamoyl-2-methoxyphenyl)ureido)naphthalen-1-yl)oxy)pyridin-2-yl)amino)-2-methoxy-N-(2-morpholinoethyl)benzamide] here?
The IC50 was 2.02 µM.

How did the IC50 turn out when COCCOCCOCCNC(=O)c1ccc(Nc2cc(Oc3ccc(NC(=O)Nc4cc(C(C)(C)C)cc(NS(C)(=O)=O)c4OC)c4ccccc34)ccn2)cc1OC [Example 5, 4-((4-((4-(3-(5-(tert-Butyl)-2-methoxy-3-(methylsulfonamido)phenyl)ureido)naphthalen-1-yl)oxy)pyridin-2-yl)amino)-2-methoxy-N-(2-(2-(2-methoxyethoxy)ethoxy)ethyl)benzamide] was run?
The IC50 was 1.34 µM.

Which IC50 does the source give for COCCOCCOCCNC(=O)c1ccc(Nc2cc(Oc3ccc(NC(=O)Nc4cc(C(C)(C)C)cc(C(N)=O)c4OC)c4ccccc34)ccn2)cc1OC [Example 6, 4-((4-((4-(3-(5-(tert-Butyl)-3-carbamoyl-2-methoxyphenyl)ureido)naphthalen-1-yl)oxy)pyridin-2-yl)amino)-2-methoxy-N-(2-(2-(2-methoxyethoxy)ethoxy)ethyl)benzamide] here?
The IC50 was 1.9 µM.

How did the IC50 turn out when COc1cc(Nc2cc(Oc3ccc(NC(=O)Nc4cc(C(C)(C)C)cc(NS(C)(=O)=O)c4OC)c4ccccc34)ccn2)ccc1C(=O)NCCN1CC[S+]([O-])CC1 [Example 7, 4-((4-((4-(3-(5-(tert-Butyl)-2-methoxy-3-(methylsulfonamido)phenyl)ureido)naphthalen-1-yl)oxy)pyridin-2-yl)amino)-2-methoxy-N-(2-(1-oxidothiomorpholino)ethyl)benzamide] was run?
The IC50 was 1.1 µM.

How did the IC50 turn out when COCCOCCOCCOc1ccc(Nc2cc(Oc3ccc(NC(=O)Nc4cc(C(C)(C)C)cc(NS(C)(=O)=O)c4OC)c4ccccc34)ccn2)cc1C#N [Example 8, N-(5-(tert-Butyl)-3-(3-(4-((2-((3-cyano-4-(2-(2-(2-methoxyethoxy)ethoxy)ethoxy)phenyl)amino)pyridin-4-yl)oxy)naphthalen-1-yl)ureido)-2-methoxyphenyl)methanesulfonamide] was run?
Its IC50 is 3.77 µM.

Which IC50 does the source give for COc1c(NC(=O)Nc2ccc(Oc3ccnc(Nc4ccc(OCCN5CCOCC5)c(C#N)c4)c3)c3ccccc23)cc(C(C)(C)C)cc1NS(C)(=O)=O [Example 9, N-(5-(tert-Butyl)-3-(3-(4-((2-((3-cyano-4-(2-morpholinoethoxy)phenyl)amino)pyridin-4-yl)oxy)naphthalen-1-yl)ureido)-2-methoxyphenyl)methanesulfonamide] here?
The IC50 was 4.34 µM.

COc1c(NC(=O)Nc2ccc(Oc3ccnc(Nc4ccc(OCCCN5CCOCC5)c(C#N)c4)c3)c3ccccc23)cc(C(C)(C)C)cc1NS(C)(=O)=O [Example 10, N-(5-(tert-Butyl)-3-(3-(4-((2-((3-cyano-4-(3-morpholinopropxy)phenyl)amino)pyridin-4-yl)oxy)naphthalen-1-yl)ureido)-2-methoxyphenyl)methanesulfonamide] was tested. Which IC50 did it give?
Its IC50 is 5.56 µM.

Which IC50 does the source give for COCCOCCOCC[S+]([O-])c1ccc(Nc2cc(Oc3ccc(NC(=O)Nc4cc(C(C)(C)C)cc(NS(C)(=O)=O)c4OC)c4ccccc34)ccn2)cc1OC (centres unmarked) [Example 11, N-(5-(tert-Butyl)-2-methoxy-3-(3-(4-((2-((3-methoxy-4-((2-(2-(2-methoxyethoxy)ethoxy)ethyl)sulfinyl)phenyl)amino)pyridin-4-yl)oxy)naphthalen-1-yl)ureido)phenyl)methanesulfonamide] here?
Its IC50 is 1.3 µM.

Which IC50 does the source give for COCCOCCOCCS(=O)(=O)c1ccc(Nc2cc(Oc3ccc(NC(=O)Nc4cc(C(C)(C)C)cc(NS(C)(=O)=O)c4OC)c4ccccc34)ccn2)cc1OC [Example 12, 1-[5-tert-Butyl-3-(methanesulfonamido)-2-methoxy-phenyl]-3-[4-[[2-[3-methoxy-4-[2-[2-(2-methoxyethoxy)ethoxy]ethylsulfonyl]anilino]-4-pyridyl]oxy]-1-naphthyl]urea] here?
The IC50 was 2.14 µM.

COc1cc(Nc2cc(Oc3ccc(NC(=O)Nc4cc(C(C)(C)C)cc(NS(C)(=O)=O)c4OC)c4ccccc34)ccn2)ccc1S(=O)(=O)N(C)CCCN1CCOCC1 [Example 13, 1-[5-tert-Butyl-3-(methanesulfonamido)-2-methoxy-phenyl]-3-[4-[[2-[3-methoxy-4-[methyl(3-morpholinopropyl)sulfamoyl]anilino]-4-pyridyl]oxy]-1-naphthyl]urea] was tested. Which IC50 did it give?
The IC50 was 3.63 µM.

COc1cc(Nc2cc(Oc3ccc(NC(=O)Nc4cc(C(C)(C)C)cc(NS(C)(=O)=O)c4OC)c4ccccc34)ccn2)cc(OC)c1C(=O)O [Example 46, 4-[[4-[[4-[[5-tert-Butyl-3-(methanesulfonamido)-2-methoxyphenyl]carbamoylamino]-1-naphthyl]oxy]-2-pyridyl]amino]-2,6-dimethoxybenzoic acid] was tested. Which IC50 did it give?
Its IC50 is 0.225 µM.

Source: US9751837B2, “Kinase inhibitors” (RESPIVERT LIMITED, priority 2014, dated 2017)
